Structures are written as SMILES.

Results on 22 molecules are retold here after patent US8399681B2, “Substituted aminothiazolone indazoles as estrogen related receptor-alpha modulators” (Janssen Pharmaceutica NV, priority 2009, dated 2013).

Test [1] addresses T1, ERR1 (also known as ERR-α or ERR-1) (Homo sapiens, UniProt P11474).
T1 sequence (P11474 193-421 limits assumed): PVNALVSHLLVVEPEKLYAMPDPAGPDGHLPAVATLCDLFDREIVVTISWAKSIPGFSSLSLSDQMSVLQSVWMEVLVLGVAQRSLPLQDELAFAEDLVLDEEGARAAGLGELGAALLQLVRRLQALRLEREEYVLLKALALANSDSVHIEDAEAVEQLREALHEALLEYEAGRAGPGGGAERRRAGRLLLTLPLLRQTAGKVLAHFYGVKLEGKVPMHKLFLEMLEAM
The test can be described thus: TR-FRET assay (disruption of co-activator peptide binding). The class given is biochemical. To be noted: 6His-tagged ERR1 LBD, GST-hSRC2 co-activator polypeptide; average of 3 independent experiments. In outline: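 His6-ERR1 LBD (6 nM) with GST-SRC-2 peptide (6 nM), anti-GST Eu cryptate (30 nM) and anti-His XL665 (7.5 nM) in Tris pH 8/KCl/DTT/BSA buffer, equilibrated 4-18 h at 25 °C. Ex 340, em 615/665 nm; hyperbolic dose-response fit, mean of 3 experiments.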

In the next test the test system is Zucker fa/fa male rats. Kind of test: Zucker fa/fa Rat Model Assay. To be noted: dosed orally once a day for 4 days, blood collected at day 5. The class given is in vivo. The source says: Zucker fa/fa is a monogenic model of frank diabetes due to a mutation on the fa gene truncating the leptin receptor and preventing its interaction with its peptide hormone. This mutation results in a hyperphagic phenotype and the rodent develops obesity, hyperlipidemia, fasting hyperglycemia and insulin resistance. Zucker fa/fa male rats were received at four weeks of age and allowed to acclimate for one week. At five weeks of age the animals were single housed in cages in a temperature-controlled room with 12-hour light/dark cycle. The rats were allowed ad libitum access to water and food and throughout the study were maintained on a Purina 5008 diet. Animals were sorted based primarily on fed insulin levels and circulating triglycerides. Animals were dosed orally once a day in the morning for 4 days. The vehicle used was either 20% HPβCD (Hydroxypropyl Beta Cyclodextrin) or 15% Vitamin E/30% PEG-400 (Polyethylene Glycol 400). Fed insulin and triglycerides were measured using blood collected from the tail vein at day 5. Serum plasma samples were prepared by centrifugation in EDTA (Ethylenediaminetetraacetic acid) containing tubes, transferred into 96 well plates and stored at −80° C.

As for `O=C1N=C(N2CCC(C(=O)O)CC2)S/C1=C\c1ccc2c(cnn2Cc2ccc(C(F)(F)F)cc2C(F)(F)F)c1` [Compound 1, 1-{5-[1-(2,4-Bis-trifluoromethyl-benzyl)-1H-indazol-5-ylmethylene]-4-oxo-4,5-dihydro-thiazol-2-yl}-piperidine-4-carboxylic acid], the concentration giving a half-maximal response (EC50) in test [1] worked out at 10.1 nM. In addition, in the test on Zucker fa/fa male rats, the “% Lowering Fed Insulin Levels” value was 58% and the “% Lowering Fed Triglyceride Levels” value was found to be 37%.

`O=C1N=C(N2CC(C(=O)O)C2)S/C1=C\c1ccc2c(cnn2Cc2ccc(C(F)(F)F)cc2C(F)(F)F)c1` [Example 35, 1-{5-[1-(2,4-Bis-trifluoromethyl-benzyl)-1H-indazol-5-ylmethylene]-4-oxo-4,5-dihydro-thiazol-2-yl}-azetidine-3-carboxylic acid] had an EC50 in test [1] of 14.3 nM. For the same molecule, in the test with Zucker fa/fa male rats, the “% Lowering Fed Insulin Levels” value turned out to be 45% and the “% Lowering Fed Triglyceride Levels” value came to 20%. In test [1], `O=C1N=C(N2CCC(C(=O)O)CC2)S/C1=C\c1ccc2c(cnn2Cc2ccc(Cl)cc2C(F)(F)F)c1` [Example 39, 1-{5-[1-(4-Chloro-2-trifluoromethyl-benzyl)-1H-indazol-5-ylmethylene]-4-oxo-4,5-dihydro-thiazol-2-yl}-piperidine-4-carboxylic acid] showed an EC50 of 3.2 nM. Further, in the test with Zucker fa/fa male rats, the “% Lowering Fed Insulin Levels” value was determined as 58% and the “% Lowering Fed Triglyceride Levels” value worked out at 35%.

In turn, `CC(N[C@H]1CCN(C2=NC(=O)/C(=C/c3ccc4c(cnn4Cc4ccc(C(F)(F)F)cc4C(F)(F)F)c3)S2)C1)C(N)=O` (stereo partly drawn) [Example 264, N-2-{(3S)-1-[5-({1-[2,4-Bis(trifluoromethyl)benzyl]-1H-indazol-5-yl}methylidene)-4-oxo-4,5-dihydro-1,3-thiazol-2-yl]pyrrolidin-3-yl}alaninamide] returned an EC50 in test [1] of 47 nM. For `CC(N[C@H]1CCN(C2=NC(=O)/C(=C/c3ccc4c(cnn4Cc4ccc(Cl)cc4C(F)(F)F)c3)S2)C1)C(N)=O` (stereo partly drawn) [Example 265, N-2-{(3S)-1-[5-({1-[4-Chloro-2-(trifluoromethyl)benzyl]-1H-indazol-5-yl}methylidene)-4-oxo-4,5-dihydro-1,3-thiazol-2-yl]pyrrolidin-3-yl}alaninamide], the response in test [1] was half-maximal at 38 nM (EC50). `O=C1N=C(N2CCC[C@H](NCC(F)F)C2)S/C1=C\c1ccc2c(cnn2Cc2ccc(C(F)(F)F)cc2C(F)(F)F)c1` [Example 266, 5-({1-[2,4-Bis(trifluoromethyl)benzyl]-1H-indazol-5-yl}methylidene)-2-{(3S)-3-[(2,2-difluoroethyl)amino]piperidin-1-yl}-1,3-thiazol-4(5H)-one] returned an EC50 in test [1] of 24 nM. Against the preceding molecule, the EC50 is about 1.6-fold lower. The molecule `O=C1N=C(N2CCCC(NCCO)C2)S/C1=C\c1ccc2c(cnn2Cc2ccc(C(F)(F)F)cc2C(F)(F)F)c1` (stereo not shown) [Example 267, 5-({1-[2,4-Bis(trifluoromethyl)benzyl]-1H-indazol-5-yl}methylidene)-2-{3-[(2-hydroxyethyl)amino]piperidin-1-yl}-1,3-thiazol-4(5H)-one] showed an EC50 in test [1] of 43 nM.

For `O=C1N=C(N2CCC(O)(C(=O)O)CC2)S/C1=C\c1ccc2c(cnn2Cc2ccc(Cl)cc2C(F)(F)F)c1` [Example 268, 1-[5-({1-[4-Chloro-2-(trifluoromethyl)benzyl]-1H-indazol-5-yl}methylidene)-4-oxo-4,5-dihydro-1,3-thiazol-2-yl]-4-hydroxypiperidine-4-carboxylic acid], the EC50 in test [1] was 15 nM. Still for that read-out and setting: with `O=C1N=C(N2CCC(O)(C(=O)O)CC2)S/C1=C\c1ccc2c(cnn2Cc2ccc(C(F)(F)F)cc2C(F)(F)F)c1` [Example 269, 1-[5-({1-[2,4-Bis(trifluoromethyl)benzyl]-1H-indazol-5-yl}methylidene)-4-oxo-4,5-dihydro-1,3-thiazol-2-yl]-4-hydroxypiperidine-4-carboxylic acid] the figure was 15 nM.

Consider `CNC1CN(C2=NC(=O)/C(=C/c3ccc4c(cnn4Cc4ccc(Cl)cc4C(F)(F)F)c3)S2)C1` [Example 270, 5-({1-[4-Chloro-2-(trifluoromethyl)benzyl]-1H-indazol-5-yl}methylidene)-2-[3-(methylamino)azetidin-1-yl]-1,3-thiazol-4(5H)-one], for which it took 8 nM to reach a half-maximal effect in test [1] (EC50). With `CONC(=O)C1CN(C2=NC(=O)/C(=C/c3ccc4c(cnn4Cc4ccc(Cl)cc4C(F)(F)F)c3)S2)CCN1` (stereo not shown) [Example 271, 4-[5-({1-[4-Chloro-2-(trifluoromethyl)benzyl]-1H-indazol-5-yl}methylidene)-4-oxo-4,5-dihydro-1,3-thiazol-2-yl]-N-methoxypiperazine-2-carboxamide], the EC50 in test [1] is 9 nM. In test [1], `CONC(=O)C1CN(C2=NC(=O)/C(=C/c3ccc4c(cnn4Cc4ccc(C(F)(F)F)cc4C(F)(F)F)c3)S2)CCN1` (stereo not shown) [Example 272, 4-[5-({1-[2,4-Bis(trifluoromethyl)benzyl]-1H-indazol-5-yl}methylidene)-4-oxo-4,5-dihydro-1,3-thiazol-2-yl]-N-methoxypiperazine-2-carboxamide] gave an EC50 of 35 nM.

Turning to `NC(=O)C1CN(C2=NC(=O)/C(=C/c3ccc4c(cnn4Cc4ccc(Cl)cc4C(F)(F)F)c3)S2)CCN1` (stereo not shown) [Example 273, 4-[5-({1-[4-Chloro-2-(trifluoromethyl)benzyl]-1H-indazol-5-yl}methylidene)-4-oxo-4,5-dihydro-1,3-thiazol-2-yl]piperazine-2-carboxamide], the EC50 in test [1] is 6 nM. On the same count and under the same terms, the value for `NC(=O)C1CN(C2=NC(=O)/C(=C/c3ccc4c(cnn4Cc4ccc(C(F)(F)F)cc4C(F)(F)F)c3)S2)CCN1` (stereo not shown) [Example 274, 4-[5-({1-[2,4-Bis(trifluoromethyl)benzyl]-1H-indazol-5-yl}methylidene)-4-oxo-4,5-dihydro-1,3-thiazol-2-yl]piperazine-2-carboxamide] was 8 nM.

Turning to `C=C(C)c1ccc(Cn2ncc3cc(/C=C4\SC(N5CCO[C@@H](CO)C5)=NC4=O)ccc32)c(C(F)(F)F)c1` [Example 275, 2-[(2R)-2-(Hydroxymethyl)morpholin-4-yl]-5-({1-[4-(1-methylethenyl)-2-(trifluoromethyl)benzyl]-1H-indazol-5-yl}methylidene)-1,3-thiazol-4(5H)-one], the EC50 in test [1] is 11 nM. The EC50 values of the last two molecules are within 1.5-fold of each other. `Cc1nn(Cc2ccc(Cl)cc2C(F)(F)F)c2ccc(/C=C3\SC(N4CCC(C(=O)O)CC4)=NC3=O)cc12` [Example 276, 1-[5-({1-[4-Chloro-2-(trifluoromethyl)benzyl]-3-methyl-1H-indazol-5-yl}methylidene)-4-oxo-4,5-dihydro-1,3-thiazol-2-yl]piperidine-4-carboxylic acid]: the EC50 in test [1] was 24 nM. As for `Cc1nn(Cc2ccc(Cl)cc2C(F)(F)F)c2ccc(/C=C3\SC(N4CCN[C@H](CO)C4)=NC3=O)cc12` [Example 277, 5-({1-[4-Chloro-2-(trifluoromethyl)benzyl]-3-methyl-1H-indazol-5-yl}methylidene)-2-[(3S)-3-(hydroxymethyl)piperazin-1-yl]-1,3-thiazol-4(5H)-one], the EC50 in test [1] was 9 nM.

`Cc1nn(Cc2ccc(Cl)cc2C(F)(F)F)c2ccc(/C=C3\SC(N4CCN(C)C(C)(C)C4)=NC3=O)cc12` [Example 278, 5-({1-[4-Chloro-2-(trifluoromethyl)benzyl]-3-methyl-1H-indazol-5-yl}methylidene)-2-(3,3,4-trimethylpiperazin-1-yl)-1,3-thiazol-4(5H)-one] showed an EC50 in test [1] of 17 nM. This EC50 lies about 1.9-fold higher than the previous one. `CC(C)(C)OC(=O)N1CCN(C2=NC(=O)/C(=C/c3ccc4c(c3)c(I)nn4Cc3ccc(C(F)(F)F)cc3C(F)(F)F)S2)C[C@@H]1CO` [Example 279, tert-Butyl (2R)-4-[5-({1-[2,4-bis(trifluoromethyl)benzyl]-3-iodo-1H-indazol-5-yl}methylidene)-4-oxo-4,5-dihydro-1,3-thiazol-2-yl]-2-(hydroxymethyl)piperazine-1-carboxylate] had an EC50 in test [1] of 11 nM. On the same count and under the same terms, with `CC(=O)OC[C@@H]1CN(C2=NC(=O)/C(=C/c3ccc4c(cnn4Cc4ccc(C(F)(F)F)cc4C(F)(F)F)c3)S2)CCO1` [Example 280, {(2S)-4-[5-({1-[2,4-Bis(trifluoromethyl)benzyl]-1H-indazol-5-yl}methylidene)-4-oxo-4,5-dihydro-1,3-thiazol-2-yl]morpholin-2-yl}methyl acetate] the figure was 3 nM.

Consider `O=C1N=C(N2CCO[C@H](CO)C2)S/C1=C\c1ccc2c(cnn2Cc2ncccc2C(F)(F)F)c1` [Example 281, 2-[(2S)-2-(Hydroxymethyl)morpholin-4-yl]-5-[(1-{[3-(trifluoromethyl)pyridin-2-yl]methyl}-1H-indazol-5-yl)methylidene]-1,3-thiazol-4(5H)-one], for which the response in test [1] was half-maximal at 590 nM (EC50).

In turn, `COC(=O)CNC(=O)[C@@H]1CN(C2=NC(=O)/C(=C/c3ccc4c(cnn4Cc4ccc(C(F)(F)F)cc4C(F)(F)F)c3)S2)CCO1` [Example 282, Methyl N-({(2S)-4-[5-({1-[2,4-bis(trifluoromethyl)benzyl]-1H-indazol-5-yl}methylidene)-4-oxo-4,5-dihydro-1,3-thiazol-2-yl]morpholin-2-yl}carbonyl)glycinate] gave an EC50 in test [1] of more than 4000 nM.

For orientation: EC50 means the concentration at which the effect is half-maximal. Read a high EC50 as a less potent agent.
